Test results from paper PMC8151276, “An Integrated Approach toward NanoBRET Tracers for Analysis of GPCR Ligand Engagement” (Molecules, 2021).

What was measured:
Assay type in all cases: binding
CXCR6 = target: T1, CXCR6 (Homo sapiens, UniProt O00574); assay: NanoBRET screen HiBiT-CXCR6 in HEK293
T1 construct: purchased Promega (in-house HiBiT-GPCR construct library, NanoBRET)
Method: (§1) Each tracer candidate was screened across the entire library of HiBiT-GPCR constructs using NanoBRET as the detection modality. As depicted in Figure 4A, the specificity of interactions was evaluated through decrease in BRET due to competitive displacement of a bound tracer by excess parental compound. Each tracer was analyzed for binding to each HiBiT-GPCR fusion in the absence and in the presence of competing parental compound. Briefly, HEK293 cells were transfected with HiBiT-GPCR constructs diluted into promoterless DNA to reduce expression and maximize translocation to the cell surface. Each tracer candidate was then screened at concentrations of 1 μM and 0.1 μM across cells expressing these fusions. Cells were treated for 1.5 h with tracer either alone or in the presence of 20 μM competing parental compound (i.e., control). BRET was measured upon addition of purified LgBiT and subsequent complementation with HiBiT genetically fused to a GPCR. The specificity of interactions was assessed through a decrease in BRET signal due to competitive displacement of the bound tracer. To further gauge the robustness of these interactions, the fold response over the control (i.e., BRETtracer/BRETcontrol) was calculated. We chose a 1.5-fold response, which translates to ≥7-fold signal over noise as the minimal threshold required to score an interaction as positive. […]. Below we highlight the screening results obtained for our exemplary fluorescent tracers based on Clozapine, Amitriptyline and AZD1283.
(§2) HiBiT-GPCR DNA constructs were diluted in 10 mM Tris pH 8 to a final concentration of 0.01 μg/μL, arrayed in 96-well plates and stored at −20 °C. For transfection, HEK293 cells were suspended in Opti-MEM (without phenol red) supplemented with 2% fetal bovine serum (Seradigm) and 100 units/mL penicillin–streptomycin (Gibco) at a final concentration of 220,000 cells/mL and dispensed into white 96-well plates at 90 μL/well. Subsequent transfections and screens were carried using an Agilent Bravo Automated Liquid Handling Platform. First, the 96-well HiBiT DNA arrays were diluted 25-fold in Opti-MEM (without serum or phenol red) to a final concentration of 0.0004 μg/μL and 20 μL of the diluted DNAs were transferred into new 96-well plates. Next, promoterless carrier DNA (1 μg/μL) was diluted 25-fold (0.04 μg/μL) and then dispensed into the diluted arrays at 20 μL/well. Following brief mixing, Viafect transfection reagent (Promega) diluted 16-fold into Opti-MEM was dispensed into the plates at 40 μL/well. After mixing by pipetting, plates were incubated for 10 min on the pipetting station deck. The DNA-transfection reagent complexes were then added to plates containing cells. To facilitate the screen, 10 μL of DNA-transfection reagent complexes were added in duplicates to the top 4 and bottom 4 rows, resulting in two identical 48-well arrays per plate. Plates with transfected cells were incubated for 18–20 h at 37 °C/5% CO2. A screen of each tracer across the entire library using two different concentrations requires duplicate plates of transfected cells. Depending on the number of tracers being screened, transfections can be scaled up using the same ratios. The next day, for each tracer, four 20× screening solutions in tracer dilution buffer (Promega) were prepared: two duplicates at final concentration of 20 μM and two duplicates at a final concentration of 2 μM. A competing unmodified compound was added to one of each duplicate at a final concentration of 400 μM. The four resulting solutions were diluted 4-fold in Opti-MEM without serum or phenol red to generate 5× solutions (5 µM and 0.5 µM tracer +/− 100 μM competing compound). To screen the library, a BioTek MultiFlo FX liquid dispenser was used to dispense 22.5 µL of tracer solution to the top 4 rows and 22.5 µL tracer + competing compound solution to the 4 bottom rows. Plates were briefly mixed on an orbital shaker and incubated for 1.5 h at room temperature. […]

HCRTR1 = target: T2, HCRTR1 (Homo sapiens, UniProt O43613); assay: NanoBRET screen HiBiT-HCRTR1 in HEK293
T2 construct: purchased Promega (in-house HiBiT-GPCR construct library, NanoBRET)
T2 sequence (O43613 1-425): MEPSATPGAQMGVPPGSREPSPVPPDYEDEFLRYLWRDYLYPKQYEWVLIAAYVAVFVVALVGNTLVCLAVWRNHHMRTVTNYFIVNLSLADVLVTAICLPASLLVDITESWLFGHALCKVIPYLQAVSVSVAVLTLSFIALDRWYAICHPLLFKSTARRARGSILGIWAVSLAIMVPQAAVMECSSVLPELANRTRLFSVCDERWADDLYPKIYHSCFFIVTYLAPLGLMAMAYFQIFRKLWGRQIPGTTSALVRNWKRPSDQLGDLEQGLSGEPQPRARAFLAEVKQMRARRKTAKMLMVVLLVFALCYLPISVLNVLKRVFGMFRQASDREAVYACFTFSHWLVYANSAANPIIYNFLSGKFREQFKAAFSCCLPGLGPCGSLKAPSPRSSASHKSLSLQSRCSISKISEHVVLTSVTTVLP
Method: as §1, §2

NPBWR1 = target: T3, NPBWR1 (Homo sapiens, UniProt P48145); assay: NanoBRET screen HiBiT-NPBWR1 in HEK293
T3 construct: purchased Promega (in-house HiBiT-GPCR construct library, NanoBRET)
T3 sequence (P48145 1-328): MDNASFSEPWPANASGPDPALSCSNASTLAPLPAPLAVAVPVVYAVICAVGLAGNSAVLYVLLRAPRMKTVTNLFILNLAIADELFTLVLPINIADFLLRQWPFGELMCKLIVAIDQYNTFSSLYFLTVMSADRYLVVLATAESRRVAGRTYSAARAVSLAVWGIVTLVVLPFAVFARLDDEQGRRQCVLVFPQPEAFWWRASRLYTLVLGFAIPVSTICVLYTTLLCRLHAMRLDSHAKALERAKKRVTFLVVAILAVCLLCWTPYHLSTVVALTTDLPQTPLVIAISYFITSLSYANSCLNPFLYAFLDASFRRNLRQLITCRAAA
Method: as §1, §2

XCR1 = target: T4, XCR1 (Homo sapiens, UniProt P46094); assay: NanoBRET screen HiBiT-XCR1 in HEK293
T4 construct: purchased Promega (in-house HiBiT-GPCR construct library, NanoBRET)
T4 sequence (P46094 1-333): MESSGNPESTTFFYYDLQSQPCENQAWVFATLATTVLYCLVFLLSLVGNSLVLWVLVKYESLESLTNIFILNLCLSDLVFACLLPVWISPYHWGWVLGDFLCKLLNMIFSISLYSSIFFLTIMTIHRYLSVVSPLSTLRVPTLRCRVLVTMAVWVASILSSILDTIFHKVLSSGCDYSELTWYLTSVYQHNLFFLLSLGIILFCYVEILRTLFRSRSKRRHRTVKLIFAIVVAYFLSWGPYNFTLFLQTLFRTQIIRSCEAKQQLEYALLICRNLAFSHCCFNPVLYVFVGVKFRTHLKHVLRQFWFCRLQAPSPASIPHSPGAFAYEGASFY
Method: as §1, §2

SSTR4 = target: T5, SSTR4 (Homo sapiens, UniProt P31391); assay: NanoBRET screen HiBiT-SSTR4 in HEK293
T5 construct: purchased Promega (in-house HiBiT-GPCR construct library, NanoBRET)
T5 sequence (P31391 whole entry): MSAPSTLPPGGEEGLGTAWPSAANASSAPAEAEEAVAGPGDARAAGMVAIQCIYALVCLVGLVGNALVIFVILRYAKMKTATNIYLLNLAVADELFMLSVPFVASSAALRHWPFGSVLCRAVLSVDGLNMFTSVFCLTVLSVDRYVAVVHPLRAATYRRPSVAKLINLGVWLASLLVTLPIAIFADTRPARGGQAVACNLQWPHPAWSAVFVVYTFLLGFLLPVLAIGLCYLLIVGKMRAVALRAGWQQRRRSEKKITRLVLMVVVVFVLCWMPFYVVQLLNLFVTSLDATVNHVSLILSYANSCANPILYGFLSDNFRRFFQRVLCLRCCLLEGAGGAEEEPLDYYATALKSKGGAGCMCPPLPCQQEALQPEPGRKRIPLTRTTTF
Method: as §1, §2

T1 sequence (O00574 whole entry): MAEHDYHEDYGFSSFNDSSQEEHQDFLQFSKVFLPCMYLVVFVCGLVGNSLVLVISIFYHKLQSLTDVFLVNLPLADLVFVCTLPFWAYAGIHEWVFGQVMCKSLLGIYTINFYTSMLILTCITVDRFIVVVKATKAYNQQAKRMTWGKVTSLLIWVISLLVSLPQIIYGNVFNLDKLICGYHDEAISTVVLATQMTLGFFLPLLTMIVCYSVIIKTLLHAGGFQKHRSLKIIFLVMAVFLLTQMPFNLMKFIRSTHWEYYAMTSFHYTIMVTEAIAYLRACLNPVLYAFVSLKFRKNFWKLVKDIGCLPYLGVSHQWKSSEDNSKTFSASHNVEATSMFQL

| SMILES | NanoBRET Fold Response (CXCR6; CXCR6, 0.1μM tracer) | NanoBRET Fold Response (CXCR6; CXCR6, 1μM tracer) | NanoBRET Fold Response (HCRTR1; HCRTR1, 0.1μM tracer) | NanoBRET Fold Response (HCRTR1; HCRTR1, 1μM tracer) | NanoBRET Fold Response (NPBWR1; NPBWR1, 0.1μM tracer) | NanoBRET Fold Response (NPBWR1; NPBWR1, 1μM tracer) | NanoBRET Fold Response (XCR1; XCR1, 0.1μM tracer) | NanoBRET Fold Response (XCR1; XCR1, 1μM tracer) | NanoBRET Fold Response (SSTR4; SSTR4, 0.1μM tracer) | NanoBRET Fold Response (SSTR4; SSTR4, 1μM tracer) | NanoBRET Fold Response (CXCR6; CXCR6, tracer 0.1μM) | NanoBRET Fold Response (CXCR6; CXCR6, tracer 1μM) | NanoBRET Fold Response (HCRTR1; HCRTR1, tracer 0.1μM) | NanoBRET Fold Response (HCRTR1; HCRTR1, tracer 1μM) | NanoBRET Fold Response (NPBWR1; NPBWR1, tracer 0.1μM) | NanoBRET Fold Response (NPBWR1; NPBWR1, tracer 1μM) | NanoBRET Fold Response (XCR1; XCR1, tracer 0.1μM) | NanoBRET Fold Response (XCR1; XCR1, tracer 1μM) | NanoBRET Fold Response (SSTR4; SSTR4, tracer 0.1μM) | NanoBRET Fold Response (SSTR4; SSTR4, tracer 1μM) | also measured |
| --- | --- | --- | --- | --- | --- | --- | --- | --- | --- | --- | --- | --- | --- | --- | --- | --- | --- | --- | --- | --- | --- |
| CN1CCN(C2=Nc3cc(Cl)ccc3N(CC(=O)NCCOCCOCCOCCOCCNC(=O)CCc3ccc4n3[B-](F)(F)[N+]3=C(c5ccc[nH]5)C=CC3=C4)c3ccccc32)CC1 [Clozapine-c-2-NB590] | 1.01 | 1.04 | 0.98 | 1.00 | 0.97 | 1.00 | 0.99 | 1.03 | 1.03 | 1.00 | – | – | – | – | – | – | – | – | – | – | – |
| O=C(CCc1ccc2n1[B-](F)(F)[N+]1=C(c3ccc[nH]3)C=CC1=C2)NCc1ccc(C(=O)NCCOCCC(=O)N[C@@H]2CC[C@@]3(O)[C@H]4Cc5ccc(O)c6c5[C@@]3(CCN4CC3CC3)[C@H]2O6)cc1 [Naltrexone-3-NB590] | – | – | – | – | – | – | – | – | – | – | 1.02 | 0.91 | 0.98 | 0.88 | 0.92 | 1.19 | 0.97 | 0.61 | 0.99 | 0.90 | – |
| CC(C)N(CC[C@H](c1ccccc1)c1cc(CCNC(=O)CCOCCOCCOCCOCCNC(=O)CCc2ccc3n2[B-](F)(F)[N+]2=C(c4ccc[nH]4)C=CC2=C3)ccc1O)C(C)C [Tolterodine-2-NB590] | – | – | – | – | – | – | – | – | – | – | 0.89 | 0.91 | 1.04 | 1.16 | 1.26 | 0.94 | 0.81 | 1.17 | 0.97 | 1.14 | – |
| Cc1nc2n(c(=O)c1CCN1CCC(c3noc4cc(F)ccc34)CC1)CCCC2OC(=O)NCCOCCOCCOCCOCCNC(=O)CCc1ccc2n1[B-](F)(F)[N+]1=C(c3ccc[nH]3)C=CC1=C2 (stereo not shown) [Risperidone-2-NB590] | – | – | – | – | – | – | – | – | – | – | 1.00 | 1.24 | 1.01 | 1.05 | 1.07 | 1.06 | 0.97 | 0.88 | 1.03 | 1.04 | – |
| O=C(CCOCCOCCOCCOCCNC(=O)CCc1ccc2n1[B-](F)(F)[N+]1=C(c3ccc[nH]3)C=CC1=C2)NCCCN1CCN(C2=Nc3cc(Cl)ccc3Nc3ccccc32)CC1 [Clozapine-a-2-NB590] | 0.98 | 1.08 | 0.89 | 0.98 | 1.07 | 1.03 | 1.01 | 0.98 | 1.11 | 1.20 | – | – | – | – | – | – | – | – | – | – | – |
| COc1ccc2[nH]c(-c3ccc(CNC(=O)CCOCCOCCOCCOCCNC(=O)CCc4ccc5n4[B-](F)(F)[N+]4=C(c6ccc[nH]6)C=CC4=C5)cc3)c(CCNC(C)=O)c2n1 [AzomelatoninICO9-2-NB590] | – | – | – | – | – | – | – | – | – | – | – | – | – | – | – | – | – | – | – | – | NanoBRET Fold Response (CXCR6; 0.1μM tracer): 0.98; NanoBRET Fold Response (CXCR6; 1μM tracer): 1.16; NanoBRET Fold Response (HCRTR1; 0.1μM tracer): 0.60; NanoBRET Fold Response (HCRTR1; 1μM tracer): 0.95; NanoBRET Fold Response (NPBWR1; 0.1μM tracer): 0.87; NanoBRET Fold Response (NPBWR1; 1μM tracer): 1.04; NanoBRET Fold Response (XCR1; 0.1μM tracer): 0.42; NanoBRET Fold Response (XCR1; 1μM tracer): 0.90; NanoBRET Fold Response (SSTR4; 0.1μM tracer): 0.84; NanoBRET Fold Response (SSTR4; 1μM tracer): 0.98 |
| CN1CCN(C2=Nc3cc(Cl)ccc3Nc3ccc(CNC(=O)CCOCCOCCOCCOCCNC(=O)CCc4ccc5n4[B-](F)(F)[N+]4=C(c6ccc[nH]6)C=CC4=C5)cc32)CC1 [Clozapine-b-2-NB590] | 1.01 | 1.00 | 1.04 | 1.01 | 1.05 | 1.07 | 0.94 | 1.18 | 0.97 | 1.02 | – | – | – | – | – | – | – | – | – | – | – |
